Assay results taken from patent US7125853B2, “Bicyclic carbohydrate compounds useful in the treatment of infections caused by Flaviviridae sp., such as hepatitis C and bovine viral diarrhea viruses” (Kemin Pharma B.V.B.A., priority 2003, dated 2006).
In brackets after ≈: the same amount, converted by molar mass.

What was measured:
BVDV strain Pe515 = assay: anti-BVDV activity in MDBK cells (MTS method); assay type: cell-based, bovine viral diarrhea virus; conditions: for anti-viral activity against BVDV (in words): second set of screenings
Protocol: (§1) The compounds were also screened against flaviviruses. Due to the fact that there is no adequate in vitro assay to screen against HCV, we opted to screen against the bovine viral diarrhea virus (BVDV), as it shares many similarities with the hepatitis C virus. Antiviral activity was assessed using the Pe 515 strain of BVDV on Madin Darby bovine kidney cells (MDBK cells). Both antiviral activity and cytotoxicity was determined by means of the MTS method. The EC50 is the concentration required to reduce virus induced cytopathic effect by 50%. The MTC (minimal toxic concentration) was defined as the concentration that caused >=20% reduction in cell metabolism.

E. coli ATCC 25922 = assay: antibacterial microdilution screening; assay type: cell-based, Escherichia coli; conditions: 16 hours at 35° C., Mueller-Hinton broth
Protocol: (§2) Based on the NCCLS documents M7-A4, Vol. 17 No. 2, M27-A, Vol 17 No. 9 and M38-P, Vol 18 No. 13, a microdilution method for conducting the antibacterial and antifungal screenings was developed using a Bioscreen C Analyser (Labsystems, Finland), which is an automated reader-incubator. It measures growth continuously by vertical photometry (optical density), processes the data and provides a print-out of the results. For the bacteria we selected as primary target: Staphylococcus aureus ATCC29213, Enterococcus faecalisATCC 29212, Escherichia coli ATCC 25922 and Pseudomonas aeruginosa ATCC 27853. Candida albicans ATCC 24433 and Cryptococcus neoformans ATCC 90112 were selected as yeast targets. The dermatophyte Trichophyton mentagrophytes ATCC 9533 and the invasive mould Aspergillus fumigatus ATCC 2895 were selected as moulds. All parameters necessary for optimal incubation can be programmed in the Biolink-software (Labsystems, Finland). Incubation for all bacterial screenings was 16 hours at 35° C. The incubation parameters for the screenings against Candida and Cryptococcus were respectively 24 and 48 hours at 35° C., the invasive fungus Aspergillus fumigatus was incubated for 3 days at 30° C. and the dermatophyte T. mentagrophytes was incubated for 5 days at 30° C. As growth media for the bacteria cation adjusted Mueller-Hinton broth (Oxoid, Belgium) was used. A synthetic medium is recommended for fungal susceptibility tests: RPMI 1640, with glutamine, and without bicarbonate and with a pH indicator (Oxoid), supplemented with 1% glucose.25 μl of a 10-fold compound concentration is pipetted into each well. To each 25 μl test compound 225 μl of growth media was added. As measurement tool for the antibacterial and anti-yeast screenings, the area under the growth curve is used, which is automatically determined via the Biolink software. For the screenings against the pathogenic moulds we used endpoint OD-measurement. For internal quality control, reference antibiotics for each micro-organism are incorporated in the set-up of the tests.

S. aureus ATCC 29213 = assay: antibacterial microdilution screening; assay type: cell-based, Staphylococcus aureus; conditions: 16 hours at 35° C., Mueller-Hinton broth
Protocol: as §2

P. aeruginosa ATCC 27853 = assay: antibacterial microdilution screening; assay type: cell-based, Pseudomonas aeruginosa; conditions: 16 hours at 35° C., Mueller-Hinton broth
Protocol: as §2

CEM/0 = conditions: human T-lymphocyte cells, proliferation
Description: (§3) The compounds were also checked for anti-tumor activity via the proliferation of murine leukemia cells (L 1210/0), murine mammary carcinoma cells (FM3A) and human T-lymphocyte cells (Molt4/C8, CEM/0).

L1210/0 = conditions: murine leukemia cells, proliferation
Description: as §3

Molt4/C8 = conditions: human T-lymphocyte cells, proliferation
Description: as §3

FM3A/0 = conditions: murine mammary carcinoma cells, proliferation
Description: as §3

A. fumigatus ATCC 2895 = assay: antifungal microdilution screening; assay type: cell-based, Aspergillus fumigatus; conditions: 3 days at 30° C., RPMI 1640
Protocol: as §2

MDBK cells = assay: cytotoxicity in MDBK cells (MTS method); assay type: cell-based, bovine; conditions: minimal toxic concentration causing >=20% reduction in cell metabolism; highest concentration 100 μg/ml
Protocol: as §1

HIV-2 (ROD) = assay type: cell-based, human immunodeficiency virus; conditions: HIV-induced cytopathicity, human lymphocyte CEM cell cultures
C. neoformans ATCC 90112 = assay: antifungal microdilution screening; assay type: cell-based, Cryptococcus neoformans; conditions: 48 hours at 35° C., RPMI 1640
Protocol: as §2

[1] = test system: L1210/0, FM3A/0, Molt4/C8 and CEM/0; assay: anti-tumor screening, verdict over all tested cell-lines; assay type: cell-based
HSV-2 (G) = assay type: cell-based, herpes simplex virus; conditions: HSV-induced cytopathicity, human embryo fibroblast E6SM cell cultures
VV = assay type: cell-based, vaccinia virus; conditions: VV-induced cytopathicity, human embryo fibroblast E6SM cell cultures
[2] = test system: T. mentagrophytes ATCC 9533; assay: antifungal microdilution screening; assay type: cell-based, Trichophyton mentagrophytes; conditions: 5 days at 30° C., RPMI 1640
Protocol: as §2

E. faecalis ATCC 29212 = assay: antibacterial microdilution screening; assay type: cell-based, Enterococcus faecalis; conditions: 16 hours at 35° C., Mueller-Hinton broth
Protocol: as §2

HIV-1 (IIIB) = assay: HIV-1-induced cytopathicity in CEM cell cultures; assay type: cell-based, human immunodeficiency virus; conditions: human lymphocyte CEM cell cultures
CMV Davis, AD-169 = assay: CMV-induced plaque formation in HEL cells; assay type: cell-based, human cytomegalo virus; conditions: human embryonic lung HEL cells, day 7
C. albicans ATCC 24433 = assay: antifungal microdilution screening; assay type: cell-based, Candida albicans; conditions: 24 hours at 35° C., RPMI 1640
Protocol: as §2

HSV-1 (KOS) = assay type: cell-based, herpes simplex virus; conditions: HSV-induced cytopathicity, human embryo fibroblast E6SM cell cultures
VZV OKA = assay type: cell-based, varicella zoster virus

Compound | MIC E. coli ATCC 25922 (E. coli ATCC 25922) | MIC S. aureus ATCC 29213 (S. aureus ATCC 29213) | MIC P. aeruginosa ATCC 27853 (P. aeruginosa ATCC 27853) | IC50 CEM/0 (CEM/0) | IC50 L1210/0 (L1210/0) | IC50 Molt4/C8 (Molt4/C8) | IC50 FM3A/0 (FM3A/0) | MIC A. fumigatus ATCC 2895 (A. fumigatus ATCC 2895) | MTC (μg/ml) MDBK (MDBK cells) | EC50 HIV-2 (ROD) (CEM) (HIV-2 (ROD)) | MIC C. neoformans ATCC 90112 (C. neoformans ATCC 90112) | anti-tumor activity against all tested cell-lines (in words) [1] | EC50 HSV-2 (G) (E6SM) (HSV-2 (G)) | MIC T. mentagrophytes ATCC 9533 [2] | MIC E. faecalis ATCC 29212 (E. faecalis ATCC 29212) | EC50 HIV-1 (IIIB) (CEM) (HIV-1 (IIIB)) | anti-viral activity against BVDV (in words) (BVDV strain Pe515) | EC50 CMV Davis, AD-169 (HEL) (CMV Davis, AD-169) | MIC C. albicans ATCC 24433 (C. albicans ATCC 24433) | EC50 HSV-1 (KOS) (E6SM) (HSV-1 (KOS)) | other results
NC(=O)c1ncn([C@@H]2O[C@H](CO)[C@@H](O)[C@H]2O)n1 [Ribavirin, reference compound] |  |  |  |  |  |  |  |  |  |  |  |  |  |  |  |  |  |  |  |  | EC50 (BVDV strain Pe515; Bovine viral diarrhea virus isolates and strains, strain Pe515, MDBK cells, MTS method, values separated by / are independent experiments, read-out: EC50 (μg/ml) BVDV): 40 µg/mL (≈ 164 µM)
CCCOC1C(Cc2ccccc2)OC2COC(c3ccccc3)OC2C1OCCC (stereo not shown) [Compound A1] | >25 µg/mL | >25 µg/mL | >25 µg/mL | >200 µg/mL | >200 µg/mL | >200 µg/mL | >200 µg/mL | >25 µg/mL | >100/>100/>100 μg/ml | >4 µg/mL | >25 µg/mL | No anti-tumor activity | >16 µg/mL | >25 µg/mL | >25 µg/mL | >20 µg/mL | significant anti-viral activity | >20 µg/mL | >25 µg/mL | >16 µg/mL | EC50 VV (E6SM) (VV): >16 µg/mL
CCCCOC1C(Cc2ccccc2)OC2COC(c3ccccc3)OC2C1OCCCC (stereo not shown) [Compound A2] | >25 µg/mL | >25 µg/mL | >25 µg/mL | 27 ± 2 µg/mL (≈ 59.4 µM) | 82 ± 7 µg/mL (≈ 180 µM) | 19 ± 1 µg/mL (≈ 41.8 µM) | 22 ± 0 µg/mL (≈ 48.4 µM) | >25 µg/mL | >100/>100/>100 μg/ml | >20 µg/mL | >25 µg/mL | moderate anti-tumor activity | >16 µg/mL | >25 µg/mL | >25 µg/mL | >20 µg/mL | moderate activity | >20 µg/mL | >25 µg/mL | >16 µg/mL | EC50 VV (E6SM) (VV): >16 µg/mL
CC(C)OC1C(c2ccccc2)OC2COC(c3ccccc3)OC2C1OC(C)C (stereo not shown) [Compound A3] | >25 µg/mL | >25 µg/mL | >25 µg/mL |  |  |  |  | >25 µg/mL | >100 µg/mL | >4 µg/mL | >25 µg/mL |  | >8 µg/mL | >25 µg/mL | >25 µg/mL | >20 µg/mL | significant anti-viral activity | >5 µg/mL | >25 µg/mL | >8 µg/mL | EC50 VZV (HEL) OKA (VZV OKA; VZV-induced plaque formation, human embryonic lung HEL cell cultures, OKA strain): 1.1 µg/mL (≈ 2.67 µM); activity against VZV (in words) (VZV OKA; first set of screenings): showed activity against VZV; EC50 (μg/ml) BVDV (BVDV strain Pe515; strain Pe515, MDBK cells, MTS method, values separated by / are independent experiments): < 0.8 µg/mL
